Measurements: US20230414510A1 (CRITITECH, INC., priority 2020, published 2023)
Each block holds one molecule with its values, some of them ahead of it.

Key:
[1] = Specific surface area (SSA) by BET sorptometry; type: physicochemical; conditions: for Surface Area: Table 8
Description: The BET specific surface area test procedure is a compendial method included in both the United States Pharmacopeia and the European Pharmacopeia.
(§1) Approximately 63 precipitation runs (approximately 500 mg to 10 grams) were conducted on the RC612B precipitation unit, according to examples provided above. Variables modified between each precipitation are detailed in Tables 1-3 below. The precipitates were analyzed by laser diffraction to determine PSD, BET sorptometry to determine SSA, and SEM to determine habit and support PSD and SSA data.
SSA determination analyses were conducted on a Porous Materials, Inc., Automated BET Sorptometer BET-202A according to manufacturer's instructions.

[2] = Mass median aerodynamic diameter (MMAD) of aerosol, rotating brush generator and TSI Aerodynamic Particle Sizer 3321; type: physicochemical; conditions: for GSD: second figure of the MMAD/GSD cell
[3] = Tapped density; type: physicochemical; conditions: for Bulk Tapped Density: Table 8
Description: As used herein, the tapped density of a particle is obtained by mechanically tapping a graduated cylinder containing the sample until little further volume change is observed.

[4] = Dissolution in 40% isopropanol 37° C., rotating paddle 50 rpm; type: physicochemical
Description: Exemplary processed products were also used for dissolution for comparison to unprocessed/raw material. Dissolution studies were carried out in 40% isopropanol 37° C. with a rotating paddle at 50 rpm.

[5] = Particle size distribution (PSD) by laser diffraction, Malvern Mastersizer 3000 Aero S; type: physicochemical; conditions: for Mean Geometric Particle size Dv50: Table 8
Description: as §1
PSD analyses were conducted on a Malvern Mastersizer™ 3000 using the Aero S™ dispersion unit according to manufacturer's instructions.

[6] = Bulk density (not tapped); type: physicochemical
Description: As used herein, the bulk density (not tapped) of a particle is the ratio of the mass to the volume (including the interparticulate void volume) of an untapped powder sample.

[7] = molecular target: T1, TMEM16A (Anoctamin-1, Ano1) (Homo sapiens, UniProt Q5XXA6); conditions: Miner et al., 2019; cited from earlier work
T1 sequence (Q5XXA6 1-986): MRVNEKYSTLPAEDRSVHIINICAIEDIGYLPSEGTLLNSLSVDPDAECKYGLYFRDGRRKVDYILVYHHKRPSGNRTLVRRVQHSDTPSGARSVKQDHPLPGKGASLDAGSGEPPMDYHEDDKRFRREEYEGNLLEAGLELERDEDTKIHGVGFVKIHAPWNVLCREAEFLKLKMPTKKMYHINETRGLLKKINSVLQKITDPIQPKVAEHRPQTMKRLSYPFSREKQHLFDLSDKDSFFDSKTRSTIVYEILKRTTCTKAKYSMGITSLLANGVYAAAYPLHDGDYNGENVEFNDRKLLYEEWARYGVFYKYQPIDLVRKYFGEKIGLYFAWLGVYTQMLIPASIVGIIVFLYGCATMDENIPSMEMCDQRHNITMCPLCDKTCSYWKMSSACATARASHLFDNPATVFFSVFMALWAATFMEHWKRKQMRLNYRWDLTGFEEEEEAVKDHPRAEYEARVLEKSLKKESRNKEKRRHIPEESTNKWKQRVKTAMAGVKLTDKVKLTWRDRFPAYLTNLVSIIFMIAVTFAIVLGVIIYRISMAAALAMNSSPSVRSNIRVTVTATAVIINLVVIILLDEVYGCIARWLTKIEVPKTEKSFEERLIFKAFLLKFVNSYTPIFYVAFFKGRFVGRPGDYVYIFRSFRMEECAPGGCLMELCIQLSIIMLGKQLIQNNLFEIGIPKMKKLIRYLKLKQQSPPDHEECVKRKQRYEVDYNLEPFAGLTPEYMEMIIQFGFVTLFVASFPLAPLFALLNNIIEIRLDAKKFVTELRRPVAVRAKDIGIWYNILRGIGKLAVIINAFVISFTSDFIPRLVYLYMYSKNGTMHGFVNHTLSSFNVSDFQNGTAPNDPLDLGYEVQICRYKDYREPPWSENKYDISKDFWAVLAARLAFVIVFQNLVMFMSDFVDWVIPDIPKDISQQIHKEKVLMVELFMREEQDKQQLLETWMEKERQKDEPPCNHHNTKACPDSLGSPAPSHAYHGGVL

[8] = intravenous; Andrews et al., 1982; Schweizer et al., 2018; cited from earlier work
[9] = listed as Milled (micronized) Niclosamide Drug Substance
[10] = volume distribution, unit not given in Tables 1-3, 6, 7

- Surface Area [1, 9]: 3.264 m2/gm
- GSD [2, 9]: 1.74
- Bulk Tapped Density [3, 9]: 0.62 gm/cm3
- Tapped Density ([3]; Tables 1-3 print no unit): 0.619
- Dissolution in 40% isopropanol 37C 50 rpm rotating paddle ([4]; 5 min, listed as Milled (micronized) Niclosamide Drug Substance): 2.9%
- Dissolution in 40% isopropanol 37C 50 rpm rotating paddle ([4]; 15 min, listed as Milled (micronized) Niclosamide Drug Substance): 4.7%
- Dissolution in 40% isopropanol 37C 50 rpm rotating paddle ([4]; 30 min, listed as Milled (micronized) Niclosamide Drug Substance): 8.4%
- Dissolution in 40% isopropanol 37C 50 rpm rotating paddle ([4]; 60 min, listed as Milled (micronized) Niclosamide Drug Substance): 12.7%
- Dissolution in 40% isopropanol 37C 50 rpm rotating paddle ([4]; 90 min, listed as Milled (micronized) Niclosamide Drug Substance): 17.3%
- Dissolution in 40% isopropanol 37C 50 rpm rotating paddle ([4]; 120 min, listed as Milled (micronized) Niclosamide Drug Substance): 23.3%
- Mean Geometric Particle size Dv50 [5, 9]: 2.97 microns
- PSD-Mastersizer Dv-10 [5, 10]: 0.765
- PSD-Mastersizer Dv-50 [5, 10]: 2.97
- PSD-Mastersizer Dv-90 [5, 10]: 6.39
- Bulk Density ([6]; Table 8, listed as Milled (micronized) Niclosamide Drug Substance): 0.49 gm/cm3
- Bulk Density ([6]; not tapped, Tables 1-3 print no unit): 0.486
Structure (SMILES): O=C(Nc1ccc([N+](=O)[O-])cc1Cl)c1cc(Cl)ccc1O [Micronized Niclosamide API, niclosamide]

- Surface Area [1]: 1.359 m2/gm
- MMAD ([2]; aerosol from rotating brush generator): 2.64 microns
- GSD [2]: 1.82
- Bulk Tapped Density [3]: 0.57 gm/cm3
- Dissolution in 40% isopropanol 37C 50 rpm rotating paddle ([4]; 5 min): 1.7%
- Dissolution in 40% isopropanol 37C 50 rpm rotating paddle ([4]; 15 min): 3.8%
- Dissolution in 40% isopropanol 37C 50 rpm rotating paddle ([4]; 30 min): 6.5%
- Dissolution in 40% isopropanol 37C 50 rpm rotating paddle ([4]; 60 min): 11.2%
- Dissolution in 40% isopropanol 37C 50 rpm rotating paddle ([4]; 90 min): 15%
- Dissolution in 40% isopropanol 37C 50 rpm rotating paddle ([4]; 120 min): 20.6%
- Mean Geometric Particle size Dv50 [5]: 21.1 microns
- Bulk Density ([6]; Table 8): 0.45 gm/cm3
Structure (SMILES): O=C(Nc1ccc([N+](=O)[O-])cc1Cl)c1cc(Cl)ccc1O [Niclosamide Drug Substance, niclosamide]
- Inhibition of TMEM16A [7]: potent inhibitor
- Toxicity when administered intravenously [8]: substantial toxicity

- SSA ([1]; BET, Tables 4, 5): 2.684 m^2/g
Structure (SMILES): NCCO.O=C(Nc1ccc([N+](=O)[O-])cc1Cl)c1cc(Cl)ccc1O [Niclosamide ethanolamine, niclosamide ethanolamine]
